Here are results for twelve molecules from patent US10294234B2, “HIV inhibitor compounds” (priority 2017, dated 2019).

Structures are written as SMILES.

One experiment relates to HIV-1 (IIIB) in MT-4 cells. Put plainly: MT-4 HIV assay. It is filed as cell-based. The conditions noted are these: Human immunodeficiency virus 1, MT4, 120 h. Here is the method:
Compounds were tested in a high-throughput 384-well assay format for their ability to inhibit the replication of HIV-1 (IIIB) in MT-4 cells. Compounds were serially diluted (1:3) in DMSO on 384-well polypropylene plates and further diluted 200-fold into complete RPMI media (10% FBS, 1% P/S) using the Biotek Micro Flow and Agilent ECHO acoustic dispenser. Each plate contained up to 8 test compounds, with negative (No Drug Control) and 5 uM AZT positive controls. MT-4 cells were pre-infected with 10 uL of either RPMI (mock-infected) or a fresh 1:250 dilution of an HIV-1 (IIIB) concentrated virus stock. Infected and uninfected MT-4 cells were further diluted in complete RPMI media and added to each plate using a Micro Flow dispenser. After 5 days incubation in a humidified and temperature controlled incubator (37° C.), Cell Titer Glo (Promega) was added to the assay plates to quantify the amount of luciferase.
Consider `COC(=O)N[C@H](C(=O)N[C@@H](Cc1ccc(C#Cc2ccc(N3CC4CCC(C3)N4C(=O)N(C)C)nc2)cc1)[C@@H](O)CN(Cc1c(F)cc(-c2cnn(C(F)F)c2)cc1F)NC(=O)[C@@H](NC(=O)OC)C(C)(C)C(F)(F)F)C(C)(C)C(F)(F)F` [Example 17, Methyl ((5S,8S,9S,14S)-11-(4-(1-(difluoromethyl)-1H-pyrazol-4-yl)-2,6-difluorobenzyl)-8-(4-((6-(8-(dimethylcarbamoyl)-3,8-diazabicyclo[3.2.1]octan-3-yl)pyridin-3-yl)ethynyl)benzyl)-16,16,16-trifluoro-9-hydroxy-15,15-dimethyl-3,6,13-trioxo-5-(1,1,1-trifluoro-2-methylpropan-2-yl)-2-oxa-4,7,11,12-tetraazahexadecan-14-yl)carbamate], for which the EC50 was 7.24 nM. The same measure, in the same setting: with `COC(=O)N[C@H](C(=O)N[C@@H](Cc1ccc(C#Cc2cnc(N3C[C@H]4C[C@@H]3CN4C3COC3)nc2)cc1)[C@@H](O)CN(Cc1c(F)cc(-c2ncccn2)cc1F)NC(=O)[C@@H](NC(=O)OC)C(C)(C)C(F)(F)F)C(C)(C)C(F)(F)F` [Example 24, Methyl ((5S,8S,9S,14S)-11-(2,6-difluoro-4-(pyrimidin-2-yl)benzyl)-16,16,16-trifluoro-9-hydroxy-15,15-dimethyl-8-(4-((2-((1R,4R)-5-(oxetan-3-yl)-2,5-diazabicyclo[2.2.1]heptan-2-yl)pyrimidin-5-yl)ethynyl)benzyl)-3,6,13-trioxo-5-(1,1,1-trifluoro-2-methylpropan-2-yl)-2-oxa-4,7,11,12-tetraazahexadecan-14-yl)carbamate] the figure was 3.82 nM.

The experiment is the same for the next values; noted with them: Human immunodeficiency virus 1, MT4, 120 h; HIV-1 (IIIB), MT-4 cells, 5 days, Cell Titer Glo; read-out: EC50.
Turning to `COC(=O)N[C@H](C(=O)NN(Cc1c(F)cc(-c2cn(C(F)F)cn2)cc1F)C[C@H](O)[C@H](Cc1ccc(C#Cc2cnc(N3CC4CCC(C3)N4C3COC3)nc2)cc1)NC(=O)[C@@H](NC(=O)OC)C(C)(C)C(F)(F)F)C(C)(C)C` [Example 2, Methyl ((5S,8S,9S,14S)-11-(4-(1-(difluoromethyl)-1H-imidazol-4-yl)-2,6-difluorobenzyl)-9-hydroxy-15,15-dimethyl-8-(4-((2-(8-(oxetan-3-yl)-3,8-diazabicyclo[3.2.1]octan-3-yl)pyrimidin-5-yl)ethynyl)benzyl)-3,6,13-trioxo-5-(1,1,1-trifluoro-2-methylpropan-2-yl)-2-oxa-4,7,11,12-tetraazahexadecan-14-yl)carbamate], the EC50 was 2.64 nM. Consider `COC(=O)N[C@H](C(=O)N[C@@H](Cc1ccc(C#Cc2ccc(N3CC4CCC(C3)N4C3COC3)nc2)cc1)[C@@H](O)CN(Cc1ccc(-c2ccn(CC(F)F)n2)cc1)NC(=O)[C@@H](NC(=O)OC)C(C)(C)C(F)(F)F)C(C)(C)C(F)(F)F` [Example 3, Methyl ((5S,10S,11S,14S)-8-(4-(1-(2,2-difluoroethyl)-1H-pyrazol-3-yl)benzyl)-16,16,16-trifluoro-10-hydroxy-15,15-dimethyl-11-(4-((6-(8-(oxetan-3-yl)-3,8-diazabicyclo[3.2.1]octan-3-yl)pyridin-3-yl)ethynyl)benzyl)-3,6,13-trioxo-5-(1,1,1-trifluoro-2-methylpropan-2-yl)-2-oxa-4,7,8,12-tetraazahexadecan-14-yl)carbamate], for which the EC50 turned out to be 6.95 nM. On the same count and under the same terms, with `COC(=O)N[C@H](C(=O)N[C@@H](Cc1ccc(C#Cc2ccc(N3CC4CCC(C3)N4C(=O)C3(C)COC3)nc2)cc1)[C@@H](O)CN(Cc1c(F)cc(-c2ccn(C)n2)cc1F)NC(=O)[C@@H](NC(=O)OC)C(C)(C)C)C(C)(C)C` [Example 4] the figure was 2.82 nM. For the molecule `COC(=O)N[C@H](C(=O)NN(Cc1c(F)cc(-c2ccn(C3CC3)n2)cc1F)C[C@H](O)[C@H](Cc1ccc(C#Cc2ccc(N3CC4CCC(C3)N4C3COC3)nc2)cc1)NC(=O)[C@@H](NC(=O)OC)C(C)(C)C(F)(F)F)C(C)(C)C` [Example 5, methyl ((5S,8S,9S,14S)-11-(4-(1-cyclopropyl-1H-pyrazol-3-yl)-2,6-difluorobenzyl)-9-hydroxy-15,15-dimethyl-8-(4-((6-(8-(oxetan-3-yl)-3,8-diazabicyclo[3.2.1]octan-3-yl)pyridin-3-yl)ethynyl)benzyl)-3,6,13-trioxo-5-(1,1,1-trifluoro-2-methylpropan-2-yl)-2-oxa-4,7,11,12-tetraazahexadecan-14-yl)carbamate], the EC50 came out at 4.37 nM. Consider `COC(=O)N[C@H](C(=O)NN(Cc1c(F)cc(-c2ccn(CC(F)F)n2)cc1F)C[C@H](O)[C@H](Cc1ccc(C#Cc2ccc(N3C[C@H]4C[C@@H]3CN4C3COC3)nc2)cc1)NC(=O)[C@@H](NC(=O)OC)C(C)(C)C(F)(F)F)C(C)(C)C` [Example 8, methyl ((5S,8S,9S,14S)-11-(4-(1-(2,2-difluoroethyl)-1H-pyrazol-3-yl)-2,6-difluorobenzyl)-9-hydroxy-15,15-dimethyl-8-(4-((6-((1R,4R)-5-(oxetan-3-yl)-2,5-diazabicyclo[2.2.1]heptan-2-yl)pyridin-3-yl)ethynyl)benzyl)-3,6,13-trioxo-5-(1,1,1-trifluoro-2-methylpropan-2-yl)-2-oxa-4,7,11,12-tetraazahexadecan-14-yl)carbamate], for which the EC50 stood at 2.46 nM.

Regarding `COC(=O)N[C@H](C(=O)N[C@@H](Cc1ccc(C#Cc2ccc(N3CCN4CCOC[C@H]4C3)nc2)cc1)[C@@H](O)CN(Cc1c(F)cc(-c2ccn(CC(F)F)n2)cc1F)NC(=O)[C@@H](NC(=O)OC)C(C)(C)C(F)(F)F)C(C)(C)C(F)(F)F` [Example 10, Methyl ((5S,8S,9S,14S)-11-(4-(1-(2,2-difluoroethyl)-1H-pyrazol-3-yl)-2,6-difluorobenzyl)-16,16,16-trifluoro-8-(4-((6-((R)-hexahydropyrazino[2,1-c][1,4]oxazin-8(1H)-yl)pyridin-3-yl)ethynyl)benzyl)-9-hydroxy-15,15-dimethyl-3,6,13-trioxo-5-(1,1,1-trifluoro-2-methylpropan-2-yl)-2-oxa-4,7,11,12-tetraazahexadecan-14-yl)carbamate], the EC50 turned out to be 3.46 nM.

As for `COC(=O)N[C@H](C(=O)NN(Cc1c(F)cc(-c2ccn(C(F)F)n2)cc1F)C[C@H](O)[C@H](Cc1ccc(C#Cc2ccc(N3CC4CC(C3)N4C3COC3)nc2)cc1)NC(=O)[C@@H](NC(=O)OC)C(C)(C)C(F)(F)F)C(C)(C)C` [Example 12, Methyl ((5S,8S,9S,14S)-11-(4-(1-(difluoromethyl)-1H-pyrazol-3-yl)-2,6-difluorobenzyl)-9-hydroxy-15,15-dimethyl-8-(4-((6-(6-(oxetan-3-yl)-3,6-diazabicyclo[3.1.1]heptan-3-yl)pyridin-3-yl)ethynyl)benzyl)-3,6,13-trioxo-5-(1,1,1-trifluoro-2-methylpropan-2-yl)-2-oxa-4,7,11,12-tetraazahexadecan-14-yl)carbamate], the EC50 came out at 3.11 nM. Consider `COC(=O)N[C@H](C(=O)NN(Cc1c(F)cc(-c2ccn(C(F)F)n2)cc1F)C[C@H](O)[C@H](Cc1ccc(C#Cc2ccc(N3CCN4CCOC[C@H]4C3)nc2)cc1)NC(=O)[C@@H](NC(=O)OC)C(C)(C)C(F)(F)F)C(C)(C)C` [Example 13, Methyl ((5S,8S,9S,14S)-11-(4-(1-(difluoromethyl)-1H-pyrazol-3-yl)-2,6-difluorobenzyl)-8-(4-((6-((R)-hexahydropyrazino[2,1-c][1,4]oxazin-8(1H)-yl)pyridin-3-yl)ethynyl)benzyl)-9-hydroxy-15,15-dimethyl-3,6,13-trioxo-5-(1,1,1-trifluoro-2-methylpropan-2-yl)-2-oxa-4,7,11,12-tetraazahexadecan-14-yl)carbamate], for which the EC50 was determined as 6.3 nM. On the same count and under the same terms, to `COC(=O)N[C@H](C(=O)N[C@@H](Cc1ccc(C#Cc2ccc(N3CC4CCC(C3)N4C3COC3)nc2)cc1)[C@@H](O)CN(Cc1c(F)cc(-c2ccn([C@@H]3CCOC3)n2)cc1F)NC(=O)[C@@H](NC(=O)OC)C(C)(C)C(F)(F)F)C(C)(C)C(F)(F)F` [Example 15, Methyl ((5S,8S,9S,14S)-11-(2,6-difluoro-4-(1-((R)-tetrahydrofuran-3-yl)-1H-pyrazol-3-yl)benzyl)-16,16,16-trifluoro-9-hydroxy-15,15-dimethyl-8-(4-((6-(8-(oxetan-3-yl)-3,8-diazabicyclo[3.2.1]octan-3-yl)pyridin-3-yl)ethynyl)benzyl)-3,6,13-trioxo-5-(1,1,1-trifluoro-2-methylpropan-2-yl)-2-oxa-4,7,11,12-tetraazahexadecan-14-yl)carbamate] belongs 4.22 nM. On the same count and under the same terms, to `COC(=O)N[C@H](C(=O)N[C@@H](Cc1ccc(C#Cc2ccc(N3CC4CCC(C3)N4C3COC3)nc2)cc1)[C@@H](O)CN(Cc1c(F)cc(-c2ccn(C)n2)cc1F)NC(=O)[C@@H](NC(=O)OC)C(C)(C)C)C(C)(C)C` [Example 22, Methyl ((5S,8S,9S,14S)-5-(tert-butyl)-1-(2,6-difluoro-4-(1-methyl-1H-pyrazol-3-yl)benzyl)-9-hydroxy-15,15-dimethyl-8-(4-((6-(8-(oxetan-3-yl)-3,8-diazabicyclo[3.2.1]octan-3-yl)pyridin-3-yl)ethynyl)benzyl)-3,6,13-trioxo-2-oxa-4,7,11,12-tetraazahexadecan-14-yl)carbamate] belongs 3.24 nM.

For orientation: EC50 means the concentration that produces a half-maximal response.
